This note sets out measurements from patent US7786083B2, “Metastin derivatives and use thereof” (Takeda Pharmaceutical Company Limited, priority 2006, dated 2010).

This assay relates to metastin receptors. Description: Measurement of agonist activity by assaying changes in intracellular calcium ion level (FLIPR, Fluo-4 NW). Type of assay: cell-based, human. Conditions: specific activity of the EC50 of a test compound based on the EC50 of Metastin (45-54), metastin receptor expression CHO cells. Put shortly: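 CHO/dhfr⁻ cells stably expressing human or rat metastin receptor, seeded 3×10^4/well for 24 h, loaded with Fluo-4 NW 30 min at 37 °C in HBSS with 0.1% BSA, 20 mM HEPES pH 7.4 and 1 mM probenecid. Compound-stimulated intracellular calcium change read on FLIPR.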
A general note: Calcium assays in cells follow changes in intracellular calcium, usually with a dye or a luminescent sensor.

*1 amine or outer side, *2 acyl side, *3 side chain or, on linkers, in order; H or OH if unused. Where a SMILES comes first, the peptide text is derived from it. [ ]: non-standard residue; d: D form. Glyψ(E-CHCH)Leu = CC(C)C[C@H](/C=C/CN[*:1])C(=O)[*:2]; X1 = CC(C)C[C@H](CCCN[*:1])C(=O)[*:2]; Arg(Me) = CNC(=N)NCCC[C@H](N)C(=O)O; Dap(CONH2) = NC(=O)NC[C@H](N)C(=O)O; Ala(cPr) = N[C@@H](CC1CC1)C(=O)O; Hyp = O=C(O)[C@@H]1C[C@@H](O)CN1; Aad = N[C@@H](CCCC(=O)O)C(=O)O; Cha = N[C@@H](CC1CCCCC1)C(=O)O; Cit = NC(=O)NCCC[C@H](N)C(=O)O; Aib = CC(C)(N)C(=O)O

As for `CNC(=N)NCCC[C@H](NC(=O)[C@@H](/C=C/CNC(=O)[C@H](Cc1ccccc1)NC(=O)[C@@H](NC(=O)[C@H](CC(N)=O)NC(=O)[C@@H]1C[C@@H](O)CN1C(=O)[C@@H](Cc1ccc(O)cc1)NC(C)=O)[C@@H](C)O)CC(C)C)C(=O)N[C@@H](Cc1c[nH]c2ccccc12)C(N)=O` [Compound No. 892, des(1)-Ac-[D-Tyr2,Hyp3,Thr5,Gly7Ψ((E)CH═CH)Leu8,Arg[(Me)9,Trp10]MS10] (Ac-[dY][Hyp]NTF[Glyψ(E-CHCH)Leu][Arg(Me)]W-NH2), the “Specific Activity” value was 0.6. As to `CNC(=N)NCCC[C@H](NC(=O)[C@@H](CCCNC(=O)[C@H](Cc1ccccc1)NC(=O)[C@@H](NC(=O)[C@H](CC(N)=O)NC(=O)[C@@H]1C[C@@H](O)CN1C(=O)[C@@H](Cc1ccc(O)cc1)NC(C)=O)[C@@H](C)O)CC(C)C)C(=O)N[C@@H](Cc1c[nH]c2ccccc12)C(N)=O` [Compound No. 893, des(1)-Ac-[D-Tyr2,Hyp3,Thr5,Gly7Ψ((E)CH2CH2)Leu8,Arg(Me)9,Trp10]MS10] (Ac-[dY][Hyp]NTF[X1][Arg(Me)]W-NH2), the “Specific Activity” value amounted to 0.8.

`CNC(=N)NCCC[C@H](NC(=O)[C@H](CC1CC1)NC(=O)CNC(=O)[C@H](CC1CCCCC1)NC(=O)[C@@H](NC(=O)[C@H](CC(N)=O)NC(=O)[C@@H]1C[C@@H](O)CN1C(=O)[C@@H](Cc1ccc(O)cc1)NC(C)=O)[C@@H](C)O)C(=O)N[C@@H](Cc1c[nH]c2ccccc12)C(N)=O` [Compound No. 894, des(1)-Ac-[D-Tyr2,Hyp3,Thr5,Cha6,Ala(cPr)8,Arg(Me)9,Trp10]MS10] (Ac-[dY][Hyp]NT[Cha]G[Ala(cPr)][Arg(Me)]W-NH2): the “Specific Activity” value came out at 0.5. The same measure for `CNC(=N)NCCC[C@H](NC(=O)[C@H](CC1CC1)NC(=O)CNC(=O)[C@H](CC1CCCCC1)NC(=O)[C@@H](NC(=O)[C@H](CC(N)=O)NC(=O)[C@H](CCC(=O)O)NC(=O)[C@@H](Cc1ccc(O)cc1)NC(C)=O)[C@@H](C)O)C(=O)N[C@@H](Cc1c[nH]c2ccccc12)C(N)=O` [Compound No. 895, des(1)-Ac-[D-Tyr2,Glu3,Thr5,Cha6,Ala(cPr)8,Arg(Me)9,Trp10]MS10] (Ac-[dY]ENT[Cha]G[Ala(cPr)][Arg(Me)]W-NH2): 0.4; for `CNC(=N)NCCC[C@H](NC(=O)[C@@H](/C=C/CNC(=O)[C@H](CC1CCCCC1)NC(=O)[C@@H](NC(=O)[C@H](CC(N)=O)NC(=O)[C@@H]1C[C@@H](O)CN1C(=O)[C@@H](Cc1ccc(O)cc1)NC(C)=O)[C@@H](C)O)CC(C)C)C(=O)N[C@@H](Cc1c[nH]c2ccccc12)C(N)=O` [Compound No. 902, des(1)-Ac-[D-Tyr2,Hyp3,Thr5,Cha6,Gly7Ψ((E)CH═CH)Leu8,Arg(Me)9,Trp10]MS10] (Ac-[dY][Hyp]NT[Cha][Glyψ(E-CHCH)Leu][Arg(Me)]W-NH2): 0.6; for `CNC(=N)NCCC[C@H](NC(=O)[C@@H](/C=C/CNC(=O)[C@H](CC1CCCCC1)NC(=O)[C@@H](NC(=O)[C@H](CNC(N)=O)NC(=O)[C@@H]1C[C@@H](O)CN1C(=O)[C@@H](Cc1ccc(O)cc1)NC(C)=O)[C@@H](C)O)CC(C)C)C(=O)N[C@@H](Cc1c[nH]c2ccccc12)C(N)=O` [Compound No. 903, des(1)-Ac-[D-Tyr2,Hyp3,Alb4,Thr5,Cha6,Gly7Ψ((E)CH═CH)Leu8,Arg(Me)9,Trp10]MS10] (Ac-[dY][Hyp][Dap(CONH2)]T[Cha][Glyψ(E-CHCH)Leu][Arg(Me)]W-NH2): 0.4. `CNC(=N)NCCC[C@H](NC(=O)[C@@H](/C=C/CNC(=O)[C@H](CC1CCCCC1)NC(=O)[C@@H](NC(=O)[C@H](CC(N)=O)NC(=O)[C@H](CCC(=O)O)NC(=O)[C@@H](Cc1ccc(O)cc1)NC(C)=O)[C@@H](C)O)CC(C)C)C(=O)N[C@@H](Cc1c[nH]c2ccccc12)C(N)=O` [Compound No. 904, des(1)-Ac-[D-Tyr2,Glu3,Thr5,Cha6,Gly7Ψ((E)CH═CH)Leu8,Arg(Me)9,Trp10]MS10] (Ac-[dY]ENT[Cha][Glyψ(E-CHCH)Leu][Arg(Me)]W-NH2): the “Specific Activity” value was 0.5. Take `CNC(=N)NCCC[C@H](NC(=O)[C@@H](/C=C/CNC(=O)[C@H](CC1CCCCC1)NC(=O)[C@@H](NC(=O)[C@H](CNC(N)=O)NC(=O)[C@H](CCC(=O)O)NC(=O)[C@@H](Cc1ccc(O)cc1)NC(C)=O)[C@@H](C)O)CC(C)C)C(=O)N[C@@H](Cc1c[nH]c2ccccc12)C(N)=O` [Compound No. 905, des(1)-Ac-[D-Tyr2,Glu3,Alb4,Thr5,Cha6,Gly7Ψ((E)CH═CH)Leu8,Arg(Me)9,Trp10]MS10] (Ac-[dY]E[Dap(CONH2)]T[Cha][Glyψ(E-CHCH)Leu][Arg(Me)]W-NH2): the “Specific Activity” value was 0.5. Take `CNC(=N)NCCC[C@H](NC(=O)[C@@H](/C=C/CNC(=O)[C@H](Cc1ccccc1)NC(=O)[C@@H](NC(=O)[C@H](CNC(N)=O)NC(=O)[C@@H]1C[C@@H](O)CN1C(=O)[C@@H](Cc1ccc(O)cc1)NC(C)=O)[C@@H](C)O)CC(C)C)C(=O)N[C@@H](Cc1c[nH]c2ccccc12)C(N)=O` [Compound No. 906, des(1)-Ac-[D-Tyr2,Hyp3,Alb4,Gly7Ψ((E)CH═CH)Leu8,Arg(Me)9,Trp10]MS10] (Ac-[dY][Hyp][Dap(CONH2)]TF[Glyψ(E-CHCH)Leu][Arg(Me)]W-NH2): the “Specific Activity” value turned out to be 0.6. Regarding `CNC(=N)NCCC[C@H](NC(=O)[C@@H](/C=C/CNC(=O)[C@H](Cc1ccccc1)NC(=O)[C@@H](NC(=O)[C@H](CC(N)=O)NC(=O)[C@H](CCC(=O)O)NC(=O)[C@@H](Cc1ccc(O)cc1)NC(C)=O)[C@@H](C)O)CC(C)C)C(=O)N[C@@H](Cc1c[nH]c2ccccc12)C(N)=O` [Compound No. 907, des(1)-Ac-[D-Tyr2,Glu3,Thr5,Gly7Ψ((E)CH═CH)Leu8,Arg(Me)9,Trp10]MS10] (Ac-[dY]ENTF[Glyψ(E-CHCH)Leu][Arg(Me)]W-NH2), the “Specific Activity” value amounted to 0.6.

Turning to `CNC(=N)NCCC[C@H](NC(=O)[C@@H](/C=C/CNC(=O)[C@H](Cc1ccccc1)NC(=O)[C@@H](NC(=O)[C@H](CNC(N)=O)NC(=O)[C@H](CCC(=O)O)NC(=O)[C@@H](Cc1ccc(O)cc1)NC(C)=O)[C@@H](C)O)CC(C)C)C(=O)N[C@@H](Cc1c[nH]c2ccccc12)C(N)=O` [Compound No. 908, des(1)-Ac-[D-Tyr2,Glu3,Alb4,Thr5,Gly7Ψ((E)CH═CH)Leu8,Arg(Me)9,Trp10]MS10] (Ac-[dY]E[Dap(CONH2)]TF[Glyψ(E-CHCH)Leu][Arg(Me)]W-NH2), the “Specific Activity” value turned out to be 0.5. Regarding `CNC(=N)NCCC[C@H](NC(=O)[C@H](CC1CC1)NC(=O)CNC(=O)[C@H](CC1CCCCC1)NC(=O)[C@@H](NC(=O)[C@H](CC(N)=O)NC(=O)[C@H](CC(=O)O)NC(=O)[C@@H](Cc1ccc(O)cc1)NC(C)=O)[C@@H](C)O)C(=O)N[C@@H](Cc1c[nH]c2ccccc12)C(N)=O` [Compound No. 909, des(1)-Ac-[D-Tyr2,Asp3,Thr5,Cha6,Ala(cPr)8,Arg(Me)9,Trp10]MS10] (Ac-[dY]DNT[Cha]G[Ala(cPr)][Arg(Me)]W-NH2), the “Specific Activity” value turned out to be 2.5. With `CNC(=N)NCCC[C@H](NC(=O)[C@H](CC1CC1)NC(=O)CNC(=O)[C@H](CC1CCCCC1)NC(=O)[C@@H](NC(=O)[C@H](CC(N)=O)NC(=O)[C@H](CCCC(=O)O)NC(=O)[C@@H](Cc1ccc(O)cc1)NC(C)=O)[C@@H](C)O)C(=O)N[C@@H](Cc1c[nH]c2ccccc12)C(N)=O` [Compound No. 910, des(1)-Ac-[D-Tyr2,Aad3,Thr5,Cha6,Ala(cPr)8,Arg(Me)9,Trp10]MS10] (Ac-[dY][Aad]NT[Cha]G[Ala(cPr)][Arg(Me)]W-NH2), the “Specific Activity” value is on record as 1.1.

For the molecule `CNC(=N)NCCC[C@H](NC(=O)[C@H](CC1CC1)NC(=O)CNC(=O)[C@H](CC1CCCCC1)NC(=O)[C@@H](NC(=O)[C@H](CC(N)=O)NC(=O)[C@H](CCCCN)NC(=O)[C@@H](Cc1ccc(O)cc1)NC(C)=O)[C@@H](C)O)C(=O)N[C@@H](Cc1c[nH]c2ccccc12)C(N)=O` [Compound No. 911, des(1)-Ac-[D-Tyr2,Lys3,Thr5,Cha6,Ala(cPr)8,Arg(Me)9,Trp10]MS10] (Ac-[dY]KNT[Cha]G[Ala(cPr)][Arg(Me)]W-NH2), the “Specific Activity” value is 0.7. As to `CNC(=N)NCCC[C@H](NC(=O)[C@H](CC1CC1)NC(=O)CNC(=O)[C@H](CC1CCCCC1)NC(=O)[C@@H](NC(=O)[C@H](CC(N)=O)NC(=O)C(C)(C)NC(=O)[C@@H](Cc1ccc(O)cc1)NC(C)=O)[C@@H](C)O)C(=O)N[C@@H](Cc1c[nH]c2ccccc12)C(N)=O` [Compound No. 912, des(1)-Ac-[D-Tyr2,Aib3,Thr5,Cha6,Ala(cPr)8,Arg(Me)9,Trp10]MS10] (Ac-[dY][Aib]NT[Cha]G[Ala(cPr)][Arg(Me)]W-NH2), the “Specific Activity” value came to 0.6.

With `CNC(=N)NCCC[C@H](NC(=O)[C@@H](/C=C/CNC(=O)[C@H](CC1CCCCC1)NC(=O)[C@@H](NC(=O)[C@H](CCC(N)=O)NC(=O)[C@@H]1C[C@@H](O)CN1C(=O)[C@@H](Cc1ccc(O)cc1)NC(C)=O)[C@@H](C)O)CC(C)C)C(=O)N[C@@H](Cc1c[nH]c2ccccc12)C(N)=O` [Compound No. 913, des(1)-Ac-[D-Tyr2,Hyp3,Gln4,Thr5,Cha6,Gly7Ψ((E)CH═CH)Leu8,Arg(Me)9,Trp10]MS10] (Ac-[dY][Hyp]QT[Cha][Glyψ(E-CHCH)Leu][Arg(Me)]W-NH2), the “Specific Activity” value turned out to be 1.4.

With `CNC(=N)NCCC[C@H](NC(=O)[C@@H](/C=C/CNC(=O)[C@H](CC1CCCCC1)NC(=O)[C@@H](NC(=O)[C@H](CCCNC(N)=O)NC(=O)[C@@H]1C[C@@H](O)CN1C(=O)[C@@H](Cc1ccc(O)cc1)NC(C)=O)[C@@H](C)O)CC(C)C)C(=O)N[C@@H](Cc1c[nH]c2ccccc12)C(N)=O` [Compound No. 914, des(1)-Ac-[D-Tyr2,Hyp3,Cit4,Thr5,Cha6,Gly7Ψ((E)CH═CH)Leu8,Arg(Me)9,Trp10]MS10] (Ac-[dY][Hyp][Cit]T[Cha][Glyψ(E-CHCH)Leu][Arg(Me)]W-NH2), the “Specific Activity” value was determined as 0.9.
